Laboratory results: patent publication US10555922B2, “Method of treating a dopamine related disorder in a subject by administering levodopa, in combination with a dopamine decarboxylase inhibitor and a catechol-o-methyltransferase inhibitor” (priority 2015, dated 2020)

Key:
[1] = cited from earlier work
[2] = Stabilization experiments with LECIGON, accelerated stability study at 25° C. for 12 days; type: physicochemical; settings: all combinations of Table 6
Protocol: HPLC—Agilent 1100 with DAD detector and cooled injector; OpenLAB CDS Chemstation C.01.05 (Agilent Technologies Inc., Santa Clara, Calif., U.S.A.).
As reference product, LECIGON™ having no stabilizing modification was used.
The following stabilizing modifications of the LECIGON™ composition were tested, the corresponding experimental compositions (“Exp.”) in Table 4 above being given within parentheses:
• a) 0.1% ascorbic acid (Exp. 5) • b) 0.5% citrate buffer (Exp. 12) • c) 0.5% citric acid (Exp. 4) 3. Removal of oxygen • nitrogen gas (Exp. 15) 4. Removal of metal ions • 0.05% EDTA (Exp. 3) 5. Combination of reduced pH and anti-oxidant (Exp. 13) 6. Combination of anti-oxidant and removal of oxygen • a) 0.1% ascorbic acid and 0.05% EDTA (Exp. 14) • b) 0.5% citric acid and 0.05% EDTA (Exp. 10) 7. Enclosure in an aluminium bag (Exp. 8).
The results are ranked with respect to reduction of hydrazine (DHPA, RRT 7.1). […] Levodopa was stable in all combinations and is therefore not included in the table. In the table, “Carb” is carbidopa, and “Ent” is entacapone.

[3] = cited from earlier work; remark: listed apart in the source
[4] = intravenous administration (3 mg/kg); cited from earlier work

Stability of levodopa in the gel combinations [2]	Compound	solubility in water [1]	metabolized to dopamine before levodopa reaches the brain ([3]; intake of levodopa alone)	bioavailability ([3]; levodopa via DUODOPA gel, same as in a tablet)	elimination half-life (t1/2β) [4] [h]
–	C[C@@](Cc1ccc(O)c(O)c1)(NN)C(=O)O [Carbidopa, (−)-L-α-hydrazino-α-methyl-β-(3,4-dihydroxybenzene) propanoic acid monohydrate]	slightly soluble in water	–	–	–
stable	N[C@@H](Cc1ccc(O)c(O)c1)C(=O)O [Levodopa, (−)-L-α-amino-β-(3,4-dihydroxybenzene) propanoic acid]	slightly soluble in water	more than 90%	81-98%	–
–	Cc1ccc(C(=O)c2cc(O)c(O)c([N+](=O)[O-])c2)cc1 [Tolcapone, (3,4-Dihydroxy-5-nitrophenyl)(4-methylphenyl)methanone]	–	–	–	2.9
